Source: ChEMBL document CHEMBL1201862, “PubChem BioAssay data set” (2004)
Activity calls are given as the source filed them.

Tests used:
[1] = Luminescence Cell-Based Dose Retest to Confirm Inhibitors of Cancer Stem Cells. [Related pubchem assays (depositor defined):AID2717, AID2721]; format: functional; conditions: Homo sapiens
[2] = cytotoxicity in HMLE control line with eGFP shRNA, dose response, counter-screen for HMLE_sh_ECad selective toxicity project, cell-based, HMLE_sh_eGFP, luminescence (AID 463074); format: functional, Homo sapiens;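 also: HMLE human mammary epithelial cells expressing control shRNA against eGFP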
[3] = molecular target: Dual specificity protein kinase CLK1 (Homo sapiens, UniProt P49759); experiment: CLK1 kinase inhibitors, off-target check, dose response, selectivity assay for Dyrk1A inhibitor project, biochemical, cherry-picked samples (AID 588811)
[4] = molecular target: Dual specificity tyrosine-phosphorylation-regulated kinase 1A (Rattus norvegicus, UniProt Q63470); format: biochemical, Homo sapiens
[5] = tested on: HeLa; experiment: HeLa cell cytotoxicity, dose response, cytotoxicity control for MITF activator project, CellTiter-Glo luminescence, cherry-pick samples (AID 540259); format: functional, cell-based; conditions: Homo sapiens
[6] = molecular target: Glycogen synthase kinase-3 beta (Homo sapiens, UniProt P49841); experiment: GSK3beta kinase inhibitors, dose response, biochemical, microfluidics, dry powder samples, set 2 (AID 623989); format: functional
[7] = molecular target: Glycogen synthase kinase-3 alpha (Homo sapiens, UniProt P49840); experiment: human GSK3 alpha kinase inhibition, dose response, selectivity assay for GSK3beta inhibitor project, biochemical, microfluidics, dry powder samples, set 2 (AID 623978); format: functional
[8] = molecular target: Cyclin-dependent kinase 5/CDK5 activator 1 (Homo sapiens, UniProt Q00535); experiment: CDK5-p25 kinase inhibition, dose response, selectivity assay for GSK3beta inhibitor project, biochemical, microfluidic mobility shift, dry powder, set 2 (AID 623979); format: functional
[9] = HeLa cell cytotoxicity, dose response, cytotoxicity control for MgcRacGAP inhibitor project (AID 624300); format: functional
[10] = molecular target: T1, Rac GTPase-activating protein 1 (Homo sapiens, UniProt Q9H0H5); experiment: MgcRacGAP GTPase-activating activity inhibitors, confirmation, biochemical, ADP Hunter fluorescence, primary and confirmatory (AID 624330); format: functional
T1 sequence (Q9H0H5 whole entry): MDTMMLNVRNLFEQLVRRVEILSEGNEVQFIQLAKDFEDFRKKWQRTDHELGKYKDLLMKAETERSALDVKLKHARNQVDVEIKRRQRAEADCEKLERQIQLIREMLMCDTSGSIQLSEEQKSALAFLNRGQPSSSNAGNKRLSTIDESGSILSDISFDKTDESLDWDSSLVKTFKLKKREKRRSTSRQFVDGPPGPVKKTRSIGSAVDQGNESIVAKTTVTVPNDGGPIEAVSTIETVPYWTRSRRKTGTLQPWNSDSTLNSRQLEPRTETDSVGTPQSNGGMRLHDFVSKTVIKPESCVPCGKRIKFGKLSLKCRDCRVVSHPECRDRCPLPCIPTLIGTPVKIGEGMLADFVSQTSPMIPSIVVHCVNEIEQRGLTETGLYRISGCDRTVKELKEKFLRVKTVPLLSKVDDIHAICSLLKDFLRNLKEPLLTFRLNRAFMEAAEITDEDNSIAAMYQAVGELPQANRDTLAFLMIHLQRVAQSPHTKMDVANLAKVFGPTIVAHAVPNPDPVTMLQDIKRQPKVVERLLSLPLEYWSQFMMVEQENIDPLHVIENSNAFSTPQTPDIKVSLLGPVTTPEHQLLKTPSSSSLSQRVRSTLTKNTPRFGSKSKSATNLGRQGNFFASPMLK

[11] = molecular target: T2, Neuropeptides B/W receptor type 1 (Homo sapiens, UniProt P48145); experiment: GPR7 antagonist potency, late-stage follow-up, cell-based, fluorescence, dose response, set 5 (AID 588566); format: functional
T2 sequence (P48145 whole entry): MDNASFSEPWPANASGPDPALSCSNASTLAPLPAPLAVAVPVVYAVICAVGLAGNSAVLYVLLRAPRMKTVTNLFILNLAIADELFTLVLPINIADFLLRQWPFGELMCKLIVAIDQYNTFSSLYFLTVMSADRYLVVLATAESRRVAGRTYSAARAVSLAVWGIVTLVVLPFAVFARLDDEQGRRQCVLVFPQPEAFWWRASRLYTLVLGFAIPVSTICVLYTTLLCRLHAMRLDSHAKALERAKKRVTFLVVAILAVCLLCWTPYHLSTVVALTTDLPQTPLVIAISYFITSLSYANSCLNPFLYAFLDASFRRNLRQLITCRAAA

[12] = molecular target: Melanin-concentrating hormone receptor 1 (Homo sapiens, UniProt Q99705); experiment: Late-stage fluorescence-based counterscreen for antagonists of the G-protein coupled receptor 7 (GPR7): cell-based dose response assay to identify antagonists of the melanin-concentrating hormone receptor 1 (MCHR1) Set 5.; format: functional
Chain of Melanin-concentrating hormone receptor 1 (Q99705 whole entry): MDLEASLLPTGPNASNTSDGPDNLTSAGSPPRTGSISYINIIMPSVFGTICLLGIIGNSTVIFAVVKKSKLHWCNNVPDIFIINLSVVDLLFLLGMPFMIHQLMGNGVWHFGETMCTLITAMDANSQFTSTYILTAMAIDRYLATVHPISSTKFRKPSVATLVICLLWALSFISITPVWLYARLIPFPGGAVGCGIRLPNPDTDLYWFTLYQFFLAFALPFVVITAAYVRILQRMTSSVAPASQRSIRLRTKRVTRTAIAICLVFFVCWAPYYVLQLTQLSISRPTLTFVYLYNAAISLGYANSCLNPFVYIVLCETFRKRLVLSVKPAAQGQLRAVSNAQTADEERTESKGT

Chain of Dual specificity protein kinase CLK1 (P49759 whole entry): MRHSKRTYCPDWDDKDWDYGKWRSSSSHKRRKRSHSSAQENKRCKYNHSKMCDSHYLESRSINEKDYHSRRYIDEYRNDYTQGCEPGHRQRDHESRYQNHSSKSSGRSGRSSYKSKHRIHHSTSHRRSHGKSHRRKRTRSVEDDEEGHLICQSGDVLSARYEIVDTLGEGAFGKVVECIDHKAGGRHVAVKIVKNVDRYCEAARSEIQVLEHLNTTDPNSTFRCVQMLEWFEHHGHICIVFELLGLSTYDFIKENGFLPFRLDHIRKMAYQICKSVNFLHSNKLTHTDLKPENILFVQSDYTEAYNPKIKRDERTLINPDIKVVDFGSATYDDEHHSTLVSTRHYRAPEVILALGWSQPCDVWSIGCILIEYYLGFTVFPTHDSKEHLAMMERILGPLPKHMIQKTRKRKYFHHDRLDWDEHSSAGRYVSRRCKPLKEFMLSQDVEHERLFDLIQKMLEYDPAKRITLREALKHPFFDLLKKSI
Chain of Glycogen synthase kinase-3 beta (P49841 whole entry): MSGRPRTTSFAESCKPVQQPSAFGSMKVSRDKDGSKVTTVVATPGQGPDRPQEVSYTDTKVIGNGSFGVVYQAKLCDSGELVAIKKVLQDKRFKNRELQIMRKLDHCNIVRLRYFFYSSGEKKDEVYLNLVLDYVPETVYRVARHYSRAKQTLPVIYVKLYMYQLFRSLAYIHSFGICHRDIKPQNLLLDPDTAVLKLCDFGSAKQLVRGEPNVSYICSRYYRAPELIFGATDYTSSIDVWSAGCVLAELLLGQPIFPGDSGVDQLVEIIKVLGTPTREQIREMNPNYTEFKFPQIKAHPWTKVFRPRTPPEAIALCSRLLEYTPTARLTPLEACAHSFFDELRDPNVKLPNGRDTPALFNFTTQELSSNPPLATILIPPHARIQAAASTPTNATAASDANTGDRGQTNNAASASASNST
Chain of Glycogen synthase kinase-3 alpha (P49840 whole entry): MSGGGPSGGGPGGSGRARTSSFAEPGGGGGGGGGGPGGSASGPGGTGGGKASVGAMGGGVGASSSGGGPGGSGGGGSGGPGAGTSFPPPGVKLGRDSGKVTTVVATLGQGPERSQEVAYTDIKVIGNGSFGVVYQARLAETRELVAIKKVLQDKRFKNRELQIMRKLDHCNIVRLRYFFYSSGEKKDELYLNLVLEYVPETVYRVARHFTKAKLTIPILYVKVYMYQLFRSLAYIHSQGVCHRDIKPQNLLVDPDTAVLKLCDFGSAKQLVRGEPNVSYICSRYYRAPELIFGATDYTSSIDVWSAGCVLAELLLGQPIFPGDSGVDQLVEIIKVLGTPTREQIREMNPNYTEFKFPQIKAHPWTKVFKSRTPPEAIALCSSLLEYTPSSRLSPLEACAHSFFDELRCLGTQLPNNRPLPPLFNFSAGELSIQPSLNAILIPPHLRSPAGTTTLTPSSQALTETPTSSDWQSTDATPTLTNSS
Chain of Cyclin-dependent kinase 5/CDK5 activator 1 (Q00535 whole entry): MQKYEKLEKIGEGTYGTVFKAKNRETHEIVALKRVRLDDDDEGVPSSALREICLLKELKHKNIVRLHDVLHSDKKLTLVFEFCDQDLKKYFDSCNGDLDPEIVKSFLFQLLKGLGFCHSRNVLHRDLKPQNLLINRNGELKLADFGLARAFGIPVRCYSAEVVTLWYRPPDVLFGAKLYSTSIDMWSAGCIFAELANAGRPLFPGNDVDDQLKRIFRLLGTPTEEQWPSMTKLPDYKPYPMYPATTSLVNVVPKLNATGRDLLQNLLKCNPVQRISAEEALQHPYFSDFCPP
Chain of Cyclin-dependent kinase 5/CDK5 activator 1 (Q15078 whole entry, further chain): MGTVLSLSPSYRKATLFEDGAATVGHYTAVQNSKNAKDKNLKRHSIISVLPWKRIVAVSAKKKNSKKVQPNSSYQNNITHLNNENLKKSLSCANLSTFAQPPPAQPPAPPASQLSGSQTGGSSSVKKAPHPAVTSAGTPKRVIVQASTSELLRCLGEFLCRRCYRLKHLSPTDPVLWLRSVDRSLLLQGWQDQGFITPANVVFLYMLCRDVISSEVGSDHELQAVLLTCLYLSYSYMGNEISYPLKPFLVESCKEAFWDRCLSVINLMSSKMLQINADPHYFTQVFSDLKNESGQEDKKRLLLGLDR

COc1cccc(Nc2nc(-c3ccc(O)cc3)cs2)c1
active: AC50 [1] 19.6 µM | AC50 [2] 34.7 µM | AC50 [3] 7.47 µM | AC50 [4] 10.2 µM | AC50 [5] 54.8 µM | AC50 [6] 2.8 µM | AC50 [7] 8.21 µM | AC50 [8] 33 µM | CC50 [9] 100 µM | IC50 [10] 66.1 µM

COc1ccc(Oc2c(Cl)cnn(CC(=O)c3ccc(Cl)cc3Cl)c2=O)cc1
active: IC50 [11] 1.85 µM | IC50 [12] 5.47 µM
